Results: publication PMC2934701 (The Journal of Biological Chemistry, 2010)
Numbering of substitutions follows the chain as printed.

How the values were obtained:
Experiment in all cases: Fluo-4 calcium assay, HEK293T + Galpha16gust44
Assay type in all cases: cell-based
hTAS2R16 (ssr3-hTAS2R16) [1] = target: T1, hTAS2R16 (ssr3-hTAS2R16) (Homo sapiens, UniProt Q9NYV7, Q177E)
T1 sequence (Q9NYV7 1-291 Q177E): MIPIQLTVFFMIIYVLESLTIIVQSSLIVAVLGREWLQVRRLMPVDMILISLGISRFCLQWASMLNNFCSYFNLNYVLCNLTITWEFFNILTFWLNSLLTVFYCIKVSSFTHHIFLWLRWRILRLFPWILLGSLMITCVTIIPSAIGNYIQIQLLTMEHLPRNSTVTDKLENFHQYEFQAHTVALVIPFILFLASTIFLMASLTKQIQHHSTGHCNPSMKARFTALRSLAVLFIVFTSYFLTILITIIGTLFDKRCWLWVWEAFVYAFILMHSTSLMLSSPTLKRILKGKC

hTAS2R16 (ssr3-hTAS2R16) [2] = target: T2, hTAS2R16 (ssr3-hTAS2R16) (Homo sapiens, UniProt Q9NYV7, F240Y)
T2 sequence (Q9NYV7 1-291 F240Y): T1 sequence (Q9NYV7 1-291 Q177E) with E177Q, F240Y

hTAS2R16 (ssr3-hTAS2R16) [3] = target: T3, hTAS2R16 (ssr3-hTAS2R16) (Homo sapiens, UniProt Q9NYV7, W94F)
T3 sequence (Q9NYV7 1-291 W94F): T1 sequence (Q9NYV7 1-291 Q177E) with W94F, E177Q

hTAS2R16 (ssr3-hTAS2R16) [4] = target: T4, hTAS2R16 (ssr3-hTAS2R16) (Homo sapiens, UniProt Q9NYV7, F93Y)
T4 sequence (Q9NYV7 1-291 F93Y): T1 sequence (Q9NYV7 1-291 Q177E) with F93Y, E177Q

hTAS2R16 (ssr3-hTAS2R16) [5] = target: T5, hTAS2R16 (ssr3-hTAS2R16) (Homo sapiens, UniProt Q9NYV7, F93T)
T5 sequence (Q9NYV7 1-291 F93T): T1 sequence (Q9NYV7 1-291 Q177E) with F93T, E177Q

hTAS2R16 (ssr3-hTAS2R16) [6] = target: T6, hTAS2R16 (ssr3-hTAS2R16) (Homo sapiens, UniProt Q9NYV7, I243A)
T6 sequence (Q9NYV7 1-291 I243A): T1 sequence (Q9NYV7 1-291 Q177E) with E177Q, I243A

hTAS2R16 (ssr3-hTAS2R16) [7] = target: T7, hTAS2R16 (ssr3-hTAS2R16) (Homo sapiens, UniProt Q9NYV7, H181T)
T7 sequence (Q9NYV7 1-291 H181T): T1 sequence (Q9NYV7 1-291 Q177E) with E177Q, H181T

hTAS2R16 (ssr3-hTAS2R16) [8] = target: T8, hTAS2R16 (ssr3-hTAS2R16) (Homo sapiens, UniProt Q9NYV7, E86Q)
T8 sequence (Q9NYV7 1-291 E86Q): T1 sequence (Q9NYV7 1-291 Q177E) with E86Q, E177Q

EC50 (hTAS2R16 (ssr3-hTAS2R16) [1]): 220 µM | EC50 (hTAS2R16 (ssr3-hTAS2R16) [2]): 2440 µM | EC50 (hTAS2R16 (ssr3-hTAS2R16) [3]): 9680 µM | EC50 (hTAS2R16 (ssr3-hTAS2R16) [4]): 10000 µM | EC50 (hTAS2R16 (ssr3-hTAS2R16) [5]): 12000 µM | EC50 (hTAS2R16 (ssr3-hTAS2R16) [6]): > 30000 µM | EC50 (hTAS2R16 (ssr3-hTAS2R16) [7]): 1840 µM | EC50 (hTAS2R16 (ssr3-hTAS2R16) [8]): 1250 µM
SMILES: OCc1ccccc1O[C@@H]1O[C@H](CO)[C@@H](O)[C@H](O)[C@H]1O [salicin]
